Source: US9376376B2, “Substitute diphenylamine compounds use thereof as antitumor agents” (SINOCHEM CORPORATION, priority 2012, dated 2016)

Assays:
lung cancer A549 cell = assay: In vitro cell inhibition assay (MTT method), A549; type: cell-based, human; conditions: 48 h incubation
Description: (§1) The human cancer cell lines used for this assay were lung cancer A549 and leukemia HL-60.
(§2) The A549 or HL-60 cells were picked up from cell incubator, after washed for twice using PBS, cells were digested by 0.25% trypsin, and then add medium to terminate the digestion. After cells were collected using centrifuge and re-suspended, count cells under inverted microscope and add medium to make a density was 5×10^4 cells/mL. After 100 μL aliquots were added to each well of 96-well microtiter plates, cells were cultured in 5% incubator for overnight at 37° C., then the different concentration compounds were added to each well. After incubation for 48 h, MTT solution was added to each well and plates were then incubated for 4 h. The MTT tetrazolium was reduced to formazan by living cells. Then the formazan crystals were dissolved though adding DMSO to each well. The absorbance was read at 570 nm with a microplate reader.

leukemia HL-60 cells = assay: In vitro cell inhibition assay (MTT method), HL-60; type: cell-based, human; conditions: 48 h
Description: as §1, §2

Row | SMILES | Proliferation inhibitory effect of the compounds on A549 cell (% of Control) (lung cancer A549 cell; 0.01 μM) | Proliferation inhibitory effect of the compounds on A549 cell (% of Control) (lung cancer A549 cell; 0.1 μM) | Proliferation inhibitory effect of the compounds on A549 cell (% of Control) (lung cancer A549 cell; 1 μM) | Proliferation inhibitory effect of the compounds on A549 cell (% of Control) (lung cancer A549 cell; 10 μM) | Proliferation inhibitory effect of the compounds on A549 cell (% of Control) (lung cancer A549 cell; 100 μM) | Proliferation inhibitory effect of the compounds on HL-60 cells (% of Control) (leukemia HL-60 cells; concentration 0.01 μM) | Proliferation inhibitory effect of the compounds on HL-60 cells (% of Control) (leukemia HL-60 cells; concentration 0.1 μM) | Proliferation inhibitory effect of the compounds on HL-60 cells (% of Control) (leukemia HL-60 cells; concentration 1 μM) | Proliferation inhibitory effect of the compounds on HL-60 cells (% of Control) (leukemia HL-60 cells; concentration 10 μM) | Proliferation inhibitory effect of the compounds on HL-60 cells (% of Control) (leukemia HL-60 cells; concentration 100 μM)
1 | N#Cc1c(Cl)c(Cl)c(Nc2ccccc2)c(C#N)c1Cl [Compound 6-1] | 13.1 % of Control | 12.1 % of Control | 16.9 % of Control | 20.4 % of Control | 19.8 % of Control | 11.5 % of Control | 10.4 % of Control | 18.8 % of Control | 63.9 % of Control | 61.9 % of Control
2 | N#Cc1c(Cl)c(Cl)c(Nc2ccccc2Cl)c(C#N)c1Cl [Compound 6-3] |  |  |  |  |  | −7.1 % of Control | −6.3 % of Control | −2.1 % of Control | 72.2 % of Control | 94.5 % of Control
3 | N#Cc1ccccc1Nc1c(Cl)c(Cl)c(C#N)c(Cl)c1C#N [Compound 6-10] |  |  |  |  |  | 21.8 % of Control | 16.1 % of Control | 9.8 % of Control | 78.5 % of Control | 77.1 % of Control
4 | N#Cc1ccc(Nc2c(Cl)c(Cl)c(C#N)c(Cl)c2C#N)cc1 [Compound 6-23] | −0.8 % of Control | −1.8 % of Control | 2.5 % of Control | 93.7 % of Control | 93.8 % of Control | 2.3 % of Control | 10.8 % of Control | 23.1 % of Control | 93.2 % of Control | 90.6 % of Control
5 | N#Cc1c(Cl)c(Cl)c(Nc2cc(C(F)(F)F)ccc2F)c(C#N)c1Cl [Compound 6-35] | 0.5 % of Control | −0.8 % of Control | 1.0 % of Control | 58.6 % of Control | 92.7 % of Control | −8.3 % of Control | −5.0 % of Control | −1.8 % of Control | 72.3 % of Control | 89.9 % of Control
6 | N#Cc1c(Cl)c(Cl)c(Nc2ccc(Cl)cc2Cl)c(C#N)c1Cl [Compound 6-39] | 18.3 % of Control | 18.8 % of Control | 19.6 % of Control | 24.9 % of Control | 92.6 % of Control | 11.9 % of Control | 14.7 % of Control | 31.0 % of Control | 78.5 % of Control | 80.8 % of Control
7 | N#Cc1cc(Cl)cc(Cl)c1Nc1c(Cl)c(Cl)c(C#N)c(Cl)c1C#N [Compound 6-109] |  |  |  |  |  | 0.1 % of Control | 2.2 % of Control | 2.9 % of Control | 52.4 % of Control | 94.4 % of Control
8 | Cc1c(Cl)c([N+](=O)[O-])cc([N+](=O)[O-])c1Nc1ccc(C(F)(F)F)cc1 [Compounds 22-24] |  |  |  |  |  | −22.4 % of Control | −16.7 % of Control | −9.3 % of Control | 82.4 % of Control | 94.3 % of Control
9 | Cc1c(Cl)c([N+](=O)[O-])cc([N+](=O)[O-])c1Nc1ccc(C#N)cc1Cl [Compounds 22-61] |  |  |  |  |  | 5.2 % of Control | 7.8 % of Control | 11.0 % of Control | 85.7 % of Control | 89.8 % of Control
10 | Cc1c(Cl)c([N+](=O)[O-])cc([N+](=O)[O-])c1Nc1c(Cl)cc(Cl)cc1Cl [Compounds 22-98] |  |  |  |  |  | −7.3 % of Control | 1.3 % of Control | 9.5 % of Control | 77.7 % of Control | 91.0 % of Control
11 | Cc1c(Cl)c([N+](=O)[O-])cc([N+](=O)[O-])c1Nc1c(Cl)cc(C#N)cc1Cl [Compounds 22-104] |  |  |  |  |  | 4.1 % of Control | −7.3 % of Control | −2.1 % of Control | 60.5 % of Control | 94.0 % of Control
12 | COC(=O)c1cc(Cl)c(Nc2c([N+](=O)[O-])cc([N+](=O)[O-])c(Cl)c2C)c(Cl)c1 [Compounds 22-107] |  |  |  |  |  | 2.8 % of Control | −9.3 % of Control | −7.0 % of Control | 65.4 % of Control | 94.4 % of Control
13 | Cc1cc([N+](=O)[O-])cc([N+](=O)[O-])c1Nc1c(Cl)cc(C(F)(F)F)cc1Cl [Compounds 30-101] |  |  |  |  |  | −6.4 % of Control | −14.2 % of Control | −0.3 % of Control | 57.3 % of Control | 80.7 % of Control
